{
  "source": "ChEMBL document CHEMBL1201862",
  "about": "“PubChem BioAssay data set” (2004)",
  "assay_in_all_cases": "NCI tumour cell line growth inhibition, 48 h",
  "key": {"RXF 393": {"tested_on": "RXF 393"}, "786-0": {"tested_on": "786-0"}, "OVCAR-8": {"tested_on": "OVCAR-8"}, "CCRF-CEM": {"tested_on": "CCRF-CEM"}, "UACC-62": {"tested_on": "UACC-62"}, "HL-60": {"tested_on": "HL-60"}, "MDA-N": {"tested_on": "MDA-N"}, "MOLT-4": {"tested_on": "MOLT-4"}, "BT-549": {"tested_on": "BT-549"}, "PC-3": {"tested_on": "PC-3"}, "K562": {"tested_on": "K562"}, "SK-MEL-5": {"tested_on": "SK-MEL-5"}, "NCI-H522": {"tested_on": "NCI-H522"}, "M14": {"tested_on": "M14"}, "IGROV-1": {"tested_on": "IGROV-1"}, "CAKI-1": {"tested_on": "CAKI-1"}, "SN12C": {"tested_on": "SN12C"}, "A498": {"tested_on": "A498"}, "NCI/ADR-RES": {"tested_on": "NCI/ADR-RES"}, "MCF7": {"tested_on": "MCF7"}, "OVCAR-4": {"tested_on": "OVCAR-4"}, "SK-MEL-2": {"tested_on": "SK-MEL-2"}, "DU-145": {"tested_on": "DU-145"}, "NCI-H460": {"tested_on": "NCI-H460"}, "U-251": {"tested_on": "U-251"}, "A549": {"tested_on": "A549"}, "RPMI-8226": {"tested_on": "RPMI-8226"}, "Hs-578T": {"tested_on": "Hs-578T"}, "OVCAR-3": {"tested_on": "OVCAR-3"}, "SNB-19": {"tested_on": "SNB-19"}, "UACC-257": {"tested_on": "UACC-257"}, "HOP-62": {"tested_on": "HOP-62"}, "SF-268": {"tested_on": "SF-268"}, "SK-OV-3": {"tested_on": "SK-OV-3"}, "TK-10": {"tested_on": "TK-10"}, "EKVX": {"tested_on": "EKVX"}, "HT-29": {"tested_on": "HT-29"}, "ACHN": {"tested_on": "ACHN"}, "HCC 2998": {"tested_on": "HCC 2998"}, "NCI-H23": {"tested_on": "NCI-H23"}, "MDA-MB-231": {"tested_on": "MDA-MB-231"}, "SNB-75": {"tested_on": "SNB-75"}, "SR": {"tested_on": "SR"}, "T47D": {"tested_on": "T47D"}, "SW-620": {"tested_on": "SW-620"}, "COLO 205": {"tested_on": "COLO 205"}, "HOP-92": {"tested_on": "HOP-92"}, "OVCAR-5": {"tested_on": "OVCAR-5"}, "NCI-H226": {"tested_on": "NCI-H226"}, "MDA-MB-435": {"tested_on": "MDA-MB-435"}, "SF-295": {"tested_on": "SF-295"}, "SF-539": {"tested_on": "SF-539"}, "KM12": {"tested_on": "KM12"}, "HCT-15": {"tested_on": "HCT-15"}, "LOX IMVI": {"tested_on": "LOX IMVI"}, "UO-31": {"tested_on": "UO-31"}, "Malme-3M": {"tested_on": "Malme-3M"}, "SK-MEL-28": {"tested_on": "SK-MEL-28"}, "HCT-116": {"tested_on": "HCT-116"}},
  "note": "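96-well plates; 48 h exposure; 5 concentrations. Endpoints by linear interpolation between flanking doses. Not reached: highest tested concentration assigned. GI50 = concentration required for 50% inhibition of growth.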 Active and inactive are the calls of the source. Cut-off read from the data, not from the text of the source: active = GI50 up to about 1.1 µM and inactive = higher.",
  "data": [
    {"smiles": "CN(Cc1cc(Br)cc(Br)c1O)Cc1c(O)ccc2ccccc12", "values": [
      {"measurement": "GI50", "setting": "RXF 393", "value": "19.4 µM (inactive)"},
      {"measurement": "GI50", "setting": "786-0", "value": "16.7 µM (inactive)"},
      {"measurement": "GI50", "setting": "OVCAR-8", "value": "23.8 µM (inactive)"},
      {"measurement": "GI50", "setting": "CCRF-CEM", "value": "20.7 µM (inactive)"},
      {"measurement": "GI50", "setting": "UACC-62", "value": "19.7 µM (inactive)"},
      {"measurement": "GI50", "setting": "HL-60", "value": "18.3 µM (inactive)"},
      {"measurement": "GI50", "setting": "MDA-N", "value": "16.3 µM (inactive)"},
      {"measurement": "GI50", "setting": "MOLT-4", "value": "10.4 µM (inactive)"},
      {"measurement": "GI50", "setting": "BT-549", "value": "22.4 µM (inactive)"},
      {"measurement": "GI50", "setting": "PC-3", "value": "16.3 µM (inactive)"},
      {"measurement": "GI50", "setting": "K562", "value": "19.8 µM (inactive)"},
      {"measurement": "GI50", "setting": "SK-MEL-5", "value": "17.4 µM (inactive)"},
      {"measurement": "GI50", "setting": "NCI-H522", "value": "26.7 µM (inactive)"},
      {"measurement": "GI50", "setting": "M14", "value": "17.2 µM (inactive)"},
      {"measurement": "GI50", "setting": "IGROV-1", "value": "20.2 µM (inactive)"},
      {"measurement": "GI50", "setting": "CAKI-1", "value": "16.1 µM (inactive)"},
      {"measurement": "GI50", "setting": "SN12C", "value": "14.9 µM (inactive)"},
      {"measurement": "GI50", "setting": "A498", "value": "20 µM (inactive)"},
      {"measurement": "GI50", "setting": "NCI/ADR-RES", "value": "34.6 µM (inactive)"},
      {"measurement": "GI50", "setting": "MCF7", "value": "26.4 µM (inactive)"},
      {"measurement": "GI50", "setting": "OVCAR-4", "value": "16.5 µM (inactive)"},
      {"measurement": "GI50", "setting": "SK-MEL-2", "value": "17.8 µM (inactive)"},
      {"measurement": "GI50", "setting": "DU-145", "value": "21.1 µM (inactive)"},
      {"measurement": "GI50", "setting": "NCI-H460", "value": "19.1 µM (inactive)"},
      {"measurement": "GI50", "setting": "U-251", "value": "19.3 µM (inactive)"},
      {"measurement": "GI50", "setting": "A549", "value": "17.7 µM (inactive)"},
      {"measurement": "GI50", "setting": "RPMI-8226", "value": "22.6 µM (inactive)"},
      {"measurement": "GI50", "setting": "Hs-578T", "value": "33.1 µM (inactive)"},
      {"measurement": "GI50", "setting": "OVCAR-3", "value": "15.2 µM (inactive)"},
      {"measurement": "GI50", "setting": "SNB-19", "value": "17.2 µM (inactive)"},
      {"measurement": "GI50", "setting": "UACC-257", "value": "17.3 µM (inactive)"},
      {"measurement": "GI50", "setting": "HOP-62", "value": "18.7 µM (inactive)"},
      {"measurement": "GI50", "setting": "SF-268", "value": "24.9 µM (inactive)"},
      {"measurement": "GI50", "setting": "SK-OV-3", "value": "19.6 µM (inactive)"},
      {"measurement": "GI50", "setting": "TK-10", "value": "17.4 µM (inactive)"},
      {"measurement": "GI50", "setting": "EKVX", "value": "16.9 µM (inactive)"},
      {"measurement": "GI50", "setting": "HT-29", "value": "14.5 µM (inactive)"},
      {"measurement": "GI50", "setting": "ACHN", "value": "22.7 µM (inactive)"},
      {"measurement": "GI50", "setting": "HCC 2998", "value": "17.1 µM (inactive)"},
      {"measurement": "GI50", "setting": "NCI-H23", "value": "22.6 µM (inactive)"},
      {"measurement": "GI50", "setting": "MDA-MB-231", "value": "16.7 µM (inactive)"},
      {"measurement": "GI50", "setting": "SNB-75", "value": "19.1 µM (inactive)"},
      {"measurement": "GI50", "setting": "SR", "value": "20.6 µM (inactive)"},
      {"measurement": "GI50", "setting": "T47D", "value": "21.9 µM (inactive)"},
      {"measurement": "GI50", "setting": "SW-620", "value": "32 µM (inactive)"},
      {"measurement": "GI50", "setting": "COLO 205", "value": "19.1 µM (inactive)"},
      {"measurement": "GI50", "setting": "HOP-92", "value": "19.1 µM (inactive)"},
      {"measurement": "GI50", "setting": "OVCAR-5", "value": "17.6 µM (inactive)"},
      {"measurement": "GI50", "setting": "NCI-H226", "value": "20.6 µM (inactive)"},
      {"measurement": "GI50", "setting": "MDA-MB-435", "value": "18 µM (inactive)"},
      {"measurement": "GI50", "setting": "SF-295", "value": "21.5 µM (inactive)"},
      {"measurement": "GI50", "setting": "SF-539", "value": "16.1 µM (inactive)"},
      {"measurement": "GI50", "setting": "KM12", "value": "17.2 µM (inactive)"},
      {"measurement": "GI50", "setting": "HCT-15", "value": 30.3, "unit": "µM"},
      {"measurement": "GI50", "setting": "LOX IMVI", "value": "19.8 µM (inactive)"},
      {"measurement": "GI50", "setting": "UO-31", "value": "14.9 µM (inactive)"},
      {"measurement": "GI50", "setting": "Malme-3M", "value": "21.7 µM (inactive)"},
      {"measurement": "GI50", "setting": "SK-MEL-28", "value": "20 µM (inactive)"},
      {"measurement": "GI50", "setting": "HCT-116", "value": "16.7 µM (inactive)"}
    ]}
  ]
}
